Values quoted from earlier work, collected in US20100151459A1, “MARKER FOR DETECTING THE PROPOSED EFFICACY OF TREATMENT” (priority 2007, published 2010).

Assays:
[1] = test system: acutely exacerbated schizophrenic inpatients; conditions: 18 mg/day, 3-week treatment
[2] = test system: reserpinized (hypodopaminergic) rats

Compound | percentage improvement in other subgrouped symptoms (negative, anxiety-depression, excitement and cognitive symptoms) ([1]; between the two genotype groups) | percentage improvement in total BPRS and positive symptoms ([1]; one or two A1 alleles (n=14) vs no A1 allele (n=11)) | locomotor activity [2]
CNc1cc(OC)c(C(=O)NC2CCN(Cc3ccccc3)C2C)cc1Cl (stereo not drawn) [nemonapride] | similar | significantly higher percentage improvement | –
O=C1CCc2ccc(OCCCCN3CCN(c4cccc(Cl)c4Cl)CC3)cc2N1 [aripiprazole] | – | – | does not increase locomotor activity
